Where two headings read alike, the source gives them in different places.
What was measured:
C57BL/6 wild-type mouse = assay: Awakening effect on wild-type mouse by light period intraventricular administration (EEG/EMG hypnogram); format: in vivo; conditions: 10 nmol intraventricular at ZT6 (light period), hypnogram for 3 hr
Text: Awakening Effect on Wild-Type Mouse by Light Period Intraventricular Administration of the Compound of the Present Invention
As the experiment animal, C57BL/6 lineage wild-type mouse (male) was used. The mice before and after 9-week-old (±1 week) underwent surgery for embedding electroencephalogram electrodes into the skull (Bregma: X=1.5; Y=0.6, Lambda: X=1.5; Y=0) and inserting electromyogram electrodes into the trapezius muscle under isoflurane anesthesia. The mice for intraventricular administration also underwent cannula embedding into lateral cerebral ventricle (Bregma: X=−0.9; Y=−0.3). From two weeks thereafter, the administration and electroencephalogram measurement were started. The experiment was conducted under a light-dark cycle environment in which the light period started at 9 (ZT0) and the dark period started at 21 (ZT12).
The test compound (compound of Example 40) (10 nmol; dissolved in 5% chromophore-containing saline) (5 μl) was injected at ZT6 into the lateral cerebral ventricle of wild-type mice under isoflurane anesthesia through cannula by using a microsyringe pump at a flow rate of 0.5 μl/min, and electroencephalogram and electromyogram was measured thereafter. The administration was started with 5% chromophore-containing saline (Vehicle) as a control, and then the test compound was administered. […]

human OX1R = target: T1, human OX1R (Homo sapiens, UniProt O43613); assay: Agonist activity against OX1R: intracellular calcium (Fura-2AM, FDSS7000) in CHOOX1R cells; format: cell-based; conditions: relative to orexin-A as full agonist (100%); for Emax at 0.1 µM / Emax at 1 µM / Emax at 10 µM: read-out: Response (%) OX1R
T1 construct: expressed in transfected cells; host or cells: CHO (Chinese hamster ovary) cells, line CHOOX1R, co-expressing NFAT-luciferase
T1 sequence (O43613 1-425): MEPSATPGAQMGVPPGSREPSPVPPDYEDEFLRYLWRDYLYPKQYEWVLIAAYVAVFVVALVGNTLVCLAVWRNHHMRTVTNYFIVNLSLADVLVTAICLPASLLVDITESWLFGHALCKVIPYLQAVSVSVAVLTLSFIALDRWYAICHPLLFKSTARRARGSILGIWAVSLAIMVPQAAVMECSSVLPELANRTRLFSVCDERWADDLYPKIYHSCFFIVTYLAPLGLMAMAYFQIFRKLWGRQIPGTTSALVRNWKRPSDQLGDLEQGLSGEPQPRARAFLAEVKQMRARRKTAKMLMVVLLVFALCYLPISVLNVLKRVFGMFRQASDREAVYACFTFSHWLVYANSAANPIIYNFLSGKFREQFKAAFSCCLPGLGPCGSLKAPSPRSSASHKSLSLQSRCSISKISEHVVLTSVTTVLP
Procedure, shortened: (§1)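 Response is agonist activity at 0.1, 1.0 or 10 μM compound as a percentage of the orexin-A full-agonist maximum, taken from 340/380 nm Fura-2 ratio changes. Each cell line is CHO constitutively expressing human OX1R or OX2R with NFAT-luciferase, dye-loaded 60 min with 5 μM Fura-2AM; compound range 10^−7–10^−5 M, 1% DMSO.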

human OX2R = target: T2, human OX2R (Homo sapiens, UniProt O43614); assay: Agonist activity against OX2R: intracellular calcium (Fura-2AM, FDSS7000) in CHOOX2R cells; format: cell-based; conditions: relative to orexin-A as full agonist (100%)
T2 construct: expressed in transfected cells; host or cells: CHO (Chinese hamster ovary) cells, line CHOOX2R, co-expressing NFAT-luciferase
T2 sequence (O43614 1-444): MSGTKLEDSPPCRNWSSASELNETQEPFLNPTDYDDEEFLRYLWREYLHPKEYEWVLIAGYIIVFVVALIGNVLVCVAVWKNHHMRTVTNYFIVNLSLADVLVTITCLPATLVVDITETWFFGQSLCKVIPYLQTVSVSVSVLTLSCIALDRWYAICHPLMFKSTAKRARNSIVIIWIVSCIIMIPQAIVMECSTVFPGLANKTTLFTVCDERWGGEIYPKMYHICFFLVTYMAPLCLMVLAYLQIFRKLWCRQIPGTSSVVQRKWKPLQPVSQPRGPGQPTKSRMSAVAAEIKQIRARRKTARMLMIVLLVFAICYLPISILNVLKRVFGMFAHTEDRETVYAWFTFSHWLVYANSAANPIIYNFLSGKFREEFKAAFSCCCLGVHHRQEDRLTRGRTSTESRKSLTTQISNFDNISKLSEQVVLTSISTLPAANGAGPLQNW
Procedure, shortened: as §1

SMILES | Response (%) OX2R (human OX2R; 0.1 μM test compound) [%] | Response (%) OX2R (human OX2R; 1.0 μM test compound) [%] | Response (%) OX2R (human OX2R; 10 μM test compound) [%] | Response (%) OX1R (human OX1R; test compound 0.1 μM) [%] | Response (%) OX1R (human OX1R; test compound 1.0 μM) [%] | Response (%) OX1R (human OX1R; test compound 10 μM) [%] | Response (%) OX2R (human OX2R; test compound 0.1 μM) [%] | Response (%) OX2R (human OX2R; test compound 1.0 μM) [%] | Response (%) OX2R (human OX2R; test compound 10 μM) [%] | Response (%) OX1R (human OX1R; 0.1 μM test compound) [%] | Response (%) OX1R (human OX1R; 1.0 μM test compound) [%] | Response (%) OX1R (human OX1R; 10 μM test compound) [%] | other results
COc1ccc(-c2cccc(C(=O)N(C)C)c2)cc1S(=O)(=O)Nc1cccc(NC(=O)Nc2cccc(N(C)C)c2)c1 [Example 40, 3′-(N-(3-(3-(3-(dimethylamino)phenyl)ureido)phenyl)sulfamoyl)-4′-methoxy-N,N-dimethyl-[1,1′-biphenyl]-3-carboxamide] | 77 | 60 | 52 | – | – | – | – | – | – | – | – | – | conscious time compared to Vehicle administration (C57BL/6 wild-type mouse): increased; Emax at 0.1 µM (human OX1R; 0.1 μM test compound): < 5%; Emax at 1 µM (human OX1R; 1.0 μM test compound): < 5%; Emax at 10 µM (human OX1R; 10 μM test compound): < 5%
CN(C)C(=O)c1cccc(-c2ccc(O)c(S(=O)(=O)Nc3cccc(NC(=O)Nc4cccc(N(C)C)c4)c3)c2)c1 [Example 115] | – | – | – | <5 | <5 | <5 | <5 | 8 | 62 | – | – | – | –
COc1ccc(-c2cccc(C(=O)N(C)C)c2)cc1S(=O)(=O)Nc1cccc(N2CCCN(c3ccccc3N(C)C)C2=O)c1 [Example 133] | – | – | – | 25 | 86 | 84 | 107 | 81 | 72 | – | – | – | –
COc1ccc(-c2cccc(C(=O)N(C)C)c2)cc1S(=O)(=O)Nc1cccc(N(CCNC(=O)OC(C)(C)C)Cc2ccccc2)c1 [Example 91, tert-butyl (2-((benzyl)(3-(3′-(dimethylcarbamoyl)-4-methoxy-[1,1′-biphenyl]-3-ylsulfonamido)phenyl)amino)ethyl)carbamate] | – | – | – | – | – | – | <5 | <5 | 35 | – | – | – | Emax at 0.1 µM (human OX1R; test compound 0.1 μM): < 5%; Emax at 1 µM (human OX1R; test compound 1.0 μM): < 5%; Emax at 10 µM (human OX1R; test compound 10 μM): < 5%
COc1ccc(-c2cccc(C(=O)N(C)C)c2)cc1S(=O)(=O)Nc1cccc(N2CCN(C(=O)c3cccc(C)c3)C2)c1 [Example 93, 4′-methoxy-N,N-dimethyl-3′-(N-(3-(3-(3-methylbenzoyl)imidazolidin-1-yl)phenyl)sulfamoyl)-[1,1′-biphenyl]-3-carboxamide] | – | – | – | – | – | – | 16 | 77 | 85 | – | – | – | Emax at 0.1 µM (human OX1R; test compound 0.1 μM): 10%; Emax at 1 µM (human OX1R; test compound 1.0 μM): 9%; Emax at 10 µM (human OX1R; test compound 10 μM): 20%
COc1ccc(C(=O)NCc2cccnc2)cc1S(=O)(=O)Nc1cccc(NC(=O)Nc2cccc(N(C)C)c2)c1 [Example 103] | – | – | – | <5 | <5 | <5 | 4 | 27 | 84 | – | – | – | –
COc1ccc(-c2cccc(C(=O)N(C)C)c2)cc1S(=O)(=O)Nc1cccc(N2CCCCN(c3cccc(N(C)C)c3)C2=O)c1 [Example 136] | – | – | – | <5 | 78 | 110 | 144 | 97 | 94 | – | – | – | –
COc1ccc(-c2cccc(C(=O)N(C)C)c2)cc1S(=O)(=O)Nc1cccc(NCc2ccc(C)cc2)c1 [Example 27] | 90 | 126 | 92 | – | – | – | – | – | – | <5 | 24 | 70 | –

Further lines, with some results ahead:

Response (%) OX2R (human OX2R; 0.1 μM test compound) [%] | Response (%) OX2R (human OX2R; 1.0 μM test compound) [%] | Response (%) OX2R (human OX2R; 10 μM test compound) [%] | Response (%) OX1R (human OX1R; test compound 0.1 μM) [%] | Response (%) OX1R (human OX1R; test compound 1.0 μM) [%] | Response (%) OX1R (human OX1R; test compound 10 μM) [%] | Response (%) OX2R (human OX2R; test compound 0.1 μM) [%] | Response (%) OX2R (human OX2R; test compound 1.0 μM) [%] | Response (%) OX2R (human OX2R; test compound 10 μM) [%] | Response (%) OX1R (human OX1R; 0.1 μM test compound) [%] | Response (%) OX1R (human OX1R; 1.0 μM test compound) [%] | Response (%) OX1R (human OX1R; 10 μM test compound) [%] | SMILES | other results
74 | 101 | 115 | – | – | – | – | – | – | <5 | <5 | 8 | COc1ccc(-c2cccc(C(=O)N(C)C)c2)cc1S(=O)(=O)Nc1cccc(NC(=O)Nc2ccccc2[N+](=O)[O-])c1 [Example 46] | –
<5 | <5 | 6 | – | – | – | – | – | – | <5 | <5 | <5 | COc1ccc(-c2cccc(C(=O)N(C)C)c2)cc1S(=O)(=O)Nc1cccc(NC(=O)Nc2cccc(NC(=N)N)c2)c1 [Example 65] | –
93 | 109 | 95 | – | – | – | – | – | – | <5 | <5 | <5 | COc1ccc(-c2cccc(C(=O)N(C)C)c2)cc1S(=O)(=O)Nc1cccc(NC(=O)Nc2ccc(Br)cc2)c1 [Example 42] | –
– | – | – | <5 | <5 | <5 | 61 | 97 | 100 | – | – | – | CCN(Cc1cccnc1)C(=O)c1ccc(OC)c(S(=O)(=O)Nc2cccc(NC(=O)Nc3cccc(N(C)C)c3)c2)c1 [Example 102] | –
<5 | 37 | 54 | – | – | – | – | – | – | <5 | <5 | 12 | COc1ccccc1CNc1cccc(NS(=O)(=O)c2cc(-c3cccc(C(=O)N(C)C)c3)ccc2OC)c1 [Example 21] | –
102 | 105 | 104 | – | – | – | – | – | – | <5 | <5 | 10 | COc1ccc(-c2cccc(C(=O)N(C)C)c2)cc1S(=O)(=O)Nc1cccc(NC(=O)Nc2ccccc2Br)c1 [Example 43] | –

Reference: patent US10351522B2, “Sulfonamide derivative and pharmaceutically acceptable acid addition salt thereof” (UNIVERSITY OF TSUKUBA, priority 2015, dated 2019)
